Test results published in the supplement of paper PMC10307832.

What was measured:
Assay in all cases: relative viability (nuclei count vs DMSO), 5 days (fraction); higher = more cells survive
CAP-232 + Pemetrexed = compound: C[C@H]([C@@H](C(=O)N)NC(=O)[C@@H]1CSSC[C@@H](C(=O)N[C@H](C(=O)N[C@@H](C(=O)N[C@H](C(=O)N1)CCCCN)CC2=CNC3=CC=CC=C32)CC4=CC=C(C=C4)O)NC(=O)[C@@H](CC5=CC=CC=C5)N)O [CAP-232] + Nc1nc2[nH]cc(CCc3ccc(C(=O)N[C@@H](CCC(=O)O)C(=O)O)cc3)c2c(=O)[nH]1 [Pemetrexed] (partner 0.2 µM)
How it was run: (§1)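 Each reported value is a median over duplicate plates. It expresses relative viability: treated-well nuclei count divided by vehicle-well nuclei count. Lung cancer cell lines in 1536-well plates were dosed by pin tool a day after seeding, alone with one drug or with a fixed anchor-drug dose plus five library-drug doses (not always all listed) in √10 steps, and nuclei were counted after 5 days.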

CAP-232 + Palbociclib = compound: C[C@H]([C@@H](C(=O)N)NC(=O)[C@@H]1CSSC[C@@H](C(=O)N[C@H](C(=O)N[C@@H](C(=O)N[C@H](C(=O)N1)CCCCN)CC2=CNC3=CC=CC=C32)CC4=CC=C(C=C4)O)NC(=O)[C@@H](CC5=CC=CC=C5)N)O [CAP-232] + CC(=O)c1c(C)c2cnc(Nc3ccc(N4CCNCC4)cn3)nc2n(C2CCCC2)c1=O [Palbociclib] (partner 0.5 µM)
How it was run: as §1

CAP-232 + Pictilisib = compound: C[C@H]([C@@H](C(=O)N)NC(=O)[C@@H]1CSSC[C@@H](C(=O)N[C@H](C(=O)N[C@@H](C(=O)N[C@H](C(=O)N1)CCCCN)CC2=CNC3=CC=CC=C32)CC4=CC=C(C=C4)O)NC(=O)[C@@H](CC5=CC=CC=C5)N)O [CAP-232] + CS(=O)(=O)N1CCN(Cc2cc3nc(-c4cccc5[nH]ncc45)nc(N4CCOCC4)c3s2)CC1 [Pictilisib] (partner 1 µM)
How it was run: as §1

CAP-232 + Bortezomib = compound: C[C@H]([C@@H](C(=O)N)NC(=O)[C@@H]1CSSC[C@@H](C(=O)N[C@H](C(=O)N[C@@H](C(=O)N[C@H](C(=O)N1)CCCCN)CC2=CNC3=CC=CC=C32)CC4=CC=C(C=C4)O)NC(=O)[C@@H](CC5=CC=CC=C5)N)O [CAP-232] + CC(C)C[C@H](NC(=O)[C@H](Cc1ccccc1)NC(=O)c1cnccn1)B(O)O [Bortezomib] (partner 0.002 µM)
How it was run: as §1

CAP-232 + Lapatinib = compound: C[C@H]([C@@H](C(=O)N)NC(=O)[C@@H]1CSSC[C@@H](C(=O)N[C@H](C(=O)N[C@@H](C(=O)N[C@H](C(=O)N1)CCCCN)CC2=CNC3=CC=CC=C32)CC4=CC=C(C=C4)O)NC(=O)[C@@H](CC5=CC=CC=C5)N)O [CAP-232] + CS(=O)(=O)CCNCc1ccc(-c2ccc3ncnc(Nc4ccc(OCc5cccc(F)c5)c(Cl)c4)c3c2)o1 [Lapatinib] (partner 2 µM)
How it was run: as §1

NCI-H1975
relative viability (CAP-232 + Pemetrexed; first compound 0.4 µM): 0.32
relative viability (CAP-232 + Pemetrexed; first compound 1.265 µM): 0.289
relative viability (CAP-232 + Pemetrexed; first compound 4 µM): 0.307
relative viability (CAP-232 + Pemetrexed; first compound 12.65 µM): 0.197
relative viability (CAP-232 + Palbociclib; first compound 0.4 µM): 0.664
relative viability (CAP-232 + Palbociclib; first compound 1.265 µM): 0.486
relative viability (CAP-232 + Palbociclib; first compound 4 µM): 0.74
relative viability (CAP-232 + Palbociclib; first compound 12.65 µM): 0.324
relative viability (CAP-232 + Pictilisib; first compound 0.4 µM): 0.262
relative viability (CAP-232 + Pictilisib; first compound 1.265 µM): 0.261
relative viability (CAP-232 + Pictilisib; first compound 4 µM): 0.313
relative viability (CAP-232 + Pictilisib; first compound 12.65 µM): 0.191
relative viability (CAP-232 + Bortezomib; first compound 0.4 µM): 0.336
relative viability (CAP-232 + Bortezomib; first compound 1.265 µM): 0.351
relative viability (CAP-232 + Bortezomib; first compound 4 µM): 0.416
relative viability (CAP-232 + Bortezomib; first compound 12.65 µM): 0.255
relative viability (CAP-232 + Lapatinib; first compound 0.4 µM): 1.03
relative viability (CAP-232 + Lapatinib; first compound 1.265 µM): 0.867
relative viability (CAP-232 + Lapatinib; first compound 4 µM): 1.11
relative viability (CAP-232 + Lapatinib; first compound 12.65 µM): 0.583

NCI-H1993
relative viability (CAP-232 + Pemetrexed; first compound 0.4 µM): 0.602
relative viability (CAP-232 + Pemetrexed; first compound 1.265 µM): 0.533
relative viability (CAP-232 + Pemetrexed; first compound 4 µM): 0.553
relative viability (CAP-232 + Pemetrexed; first compound 12.65 µM): 0.586
relative viability (CAP-232 + Palbociclib; first compound 0.4 µM): 0.701
relative viability (CAP-232 + Palbociclib; first compound 1.265 µM): 0.586
relative viability (CAP-232 + Palbociclib; first compound 4 µM): 0.62
relative viability (CAP-232 + Palbociclib; first compound 12.65 µM): 0.602
relative viability (CAP-232 + Pictilisib; first compound 0.4 µM): 0.887
relative viability (CAP-232 + Pictilisib; first compound 1.265 µM): 0.935
relative viability (CAP-232 + Pictilisib; first compound 4 µM): 0.977
relative viability (CAP-232 + Pictilisib; first compound 12.65 µM): 0.768
relative viability (CAP-232 + Bortezomib; first compound 0.4 µM): 1.26
relative viability (CAP-232 + Bortezomib; first compound 1.265 µM): 1.07
relative viability (CAP-232 + Bortezomib; first compound 4 µM): 0.966
relative viability (CAP-232 + Bortezomib; first compound 12.65 µM): 0.896
relative viability (CAP-232 + Lapatinib; first compound 0.4 µM): 0.877
relative viability (CAP-232 + Lapatinib; first compound 1.265 µM): 0.791
relative viability (CAP-232 + Lapatinib; first compound 4 µM): 0.915
relative viability (CAP-232 + Lapatinib; first compound 12.65 µM): 0.673

NCI-H2009
relative viability (CAP-232 + Pemetrexed; first compound 0.4 µM): 1.07
relative viability (CAP-232 + Pemetrexed; first compound 1.265 µM): 1.06
relative viability (CAP-232 + Pemetrexed; first compound 4 µM): 1.11
relative viability (CAP-232 + Pemetrexed; first compound 12.65 µM): 1
relative viability (CAP-232 + Palbociclib; first compound 0.4 µM): 0.181
relative viability (CAP-232 + Palbociclib; first compound 1.265 µM): 0.244
relative viability (CAP-232 + Palbociclib; first compound 4 µM): 0.175
relative viability (CAP-232 + Palbociclib; first compound 12.65 µM): 0.153
relative viability (CAP-232 + Pictilisib; first compound 0.4 µM): 0.711
relative viability (CAP-232 + Pictilisib; first compound 1.265 µM): 0.728
relative viability (CAP-232 + Pictilisib; first compound 4 µM): 0.88
relative viability (CAP-232 + Pictilisib; first compound 12.65 µM): 0.478
relative viability (CAP-232 + Bortezomib; first compound 0.4 µM): 1.09
relative viability (CAP-232 + Bortezomib; first compound 1.265 µM): 0.974
relative viability (CAP-232 + Bortezomib; first compound 4 µM): 0.97
relative viability (CAP-232 + Bortezomib; first compound 12.65 µM): 0.843
relative viability (CAP-232 + Lapatinib; first compound 0.4 µM): 1.02
relative viability (CAP-232 + Lapatinib; first compound 1.265 µM): 0.896
relative viability (CAP-232 + Lapatinib; first compound 4 µM): 0.913
relative viability (CAP-232 + Lapatinib; first compound 12.65 µM): 0.848

NCI-H2023
relative viability (CAP-232 + Pemetrexed; first compound 0.4 µM): 0.246
relative viability (CAP-232 + Pemetrexed; first compound 1.265 µM): 0.257
relative viability (CAP-232 + Pemetrexed; first compound 4 µM): 0.178
relative viability (CAP-232 + Pemetrexed; first compound 12.65 µM): 0.0965
relative viability (CAP-232 + Palbociclib; first compound 0.4 µM): 0.377
relative viability (CAP-232 + Palbociclib; first compound 1.265 µM): 0.353
relative viability (CAP-232 + Palbociclib; first compound 4 µM): 0.346
relative viability (CAP-232 + Palbociclib; first compound 12.65 µM): 0.157
relative viability (CAP-232 + Pictilisib; first compound 0.4 µM): 0.253
relative viability (CAP-232 + Pictilisib; first compound 1.265 µM): 0.231
relative viability (CAP-232 + Pictilisib; first compound 4 µM): 0.271
relative viability (CAP-232 + Pictilisib; first compound 12.65 µM): 0.133
relative viability (CAP-232 + Bortezomib; first compound 0.4 µM): 1.02
relative viability (CAP-232 + Bortezomib; first compound 1.265 µM): 1.03
relative viability (CAP-232 + Bortezomib; first compound 4 µM): 1.07
relative viability (CAP-232 + Bortezomib; first compound 12.65 µM): 0.237
relative viability (CAP-232 + Lapatinib; first compound 0.4 µM): 0.743
relative viability (CAP-232 + Lapatinib; first compound 1.265 µM): 0.761
relative viability (CAP-232 + Lapatinib; first compound 4 µM): 0.797
relative viability (CAP-232 + Lapatinib; first compound 12.65 µM): 0.38
